These results are taken from patent EP1948196B1, “USE OF TETRAORGANOSILICON COMPOUNDS” (Salama, Zoser B., priority 2005, dated 2007).

The test system of series [1] is Krebszellen. Put plainly: Effect of sugar silanes on cancer cells. It is filed as cell-based.
Series [2] has as its system Basalzellkarzinome. Put plainly: Effect on basal cell carcinomas.
The test system of series [3] is Osteosarkomen. In words: Antimetastatic effect in rats. The following applies: in Ratten. It is filed as in vivo.
The subject of series [4] is Seminome.
Series [5] has as its system HIV-Vren. In words: Antiviral effect. To be noted: in particular as vesicles holding antisense constructs.
Series [6] concerns Lymphome. In words: Effect on lymphomas.
Series [7] has as its system Plasmozyten. In words: Effect against plasmocytes.
Series [8] has as its system Hepatitis A-Viren. In words: Antiviral effect. The following applies: in particular as vesicles holding antisense constructs.
Series [9] deals with Medulloblastome. In words: Effect on medulloblastomas.
The subject of series [10] is Entero-Viren. Put plainly: Antiviral effect. The following applies: in particular as vesicles holding antisense constructs.
The test system of series [11] is Plattenepithelkarzinome. In words: Effect on squamous cell carcinomas.
Series [12] has as its system Entero-Viren. In words: Antiviral effect. The following applies: in particular as vesicles holding antisense constructs. This is another data set of the same source.
Series [13] deals with Medulloblastome. Put plainly: Effect on medulloblastomas. This is another data set of the same source.
Series [14] deals with Maus. Put plainly: Pharmacological observation in the mouse (central, vegetative and toxic effects, acute toxicity). The class given is in vivo. In a few lines:
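Mice given single doses of 5·10^-4, 1·10^-3 and 5·10^-3 mol/kg body weight and observed individually. Recorded: orienting lethal dose (oLD), motor activity, reactivity, skin and rectal temperature, and pupil motility.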

In series [15] the test system is Osteosarkome. In words: Effect on osteosarcomas.
Series [16] has as its system Kälber-Aortenendothelzellinie BKEz-7. Put plainly: Neutral red vitality test. It is filed as cell-based. To be noted: compared with the cytotoxicity test. How it is done:
(§1) Als Marker für eine zytotoxische Wirkung wird bei Zellen der charakterisierten Kälber-Aortenendothelzellinie BKEz-7 die Hemmkonzentration ermittelt, bei der eine 50%-ige Hemmung der Zellproliferation erfolgt (im Vergleich zu Kontrollkulturen ohne Zusatz eines Zellinhibitors). Die resultierende Reduzierung der Zellzahl um 50% wird als IC 50 ausgedrückt. Die getesteten Silanverbindungen wurden als Suspensionen auf die Kulturen gegeben und 48 Stunden bei 37°C inkubiert. Zusätzlich erfolgten morphologische Kontrollen und Vitalitätsbestimmungen mittels dem Neutralrot-Test. Mit Ausnahme des Di(dodecanoyloxy)dimethylsilans standen alle Ergebnisse der morphologischen Untersuchungen in guter Übereinstimmung. […]

Series [17] shares this test system. Put plainly: tissue or blood. It is filed as cell-based.
Description: Prüfung auf zytotoxisches Potential an Kälber-Aortenendothelzellinie BKEz-7
as §1

Read-outs that look alike come from different tables or passages of the source. Numbered stars: 1 amine (or outer) side, 2 acyl side, 3 side chain; on linkers, the order of the positions; unused ones are H or OH. Bridge positions count the residues as written; N and C are the ends. Peptide text beside a SMILES is read from it. I, II: the chains in the order shown. OSi(nPr)2O = CCC[Si](CCC)(O[*:1])O[*:2]; X1 = C[Si](C)(O[*:1])O[*:2]

As a reminder, the IC50 is the concentration at which inhibition is half-maximal.

`CCCCCCCCCCCCCCCCCC[Si](C)(C)O[C@@H]1O[C@H](COC(C)=O)[C@@H](OC(C)=O)[C@H](OC(C)=O)[C@H]1OC(C)=O` [1-O-Dimethyl(octadecyl)silyl-2,3,4,6-tetr'a-0-acteyl-ß-D-glucopyranosid]: in [1], the “Wirkung auf Krebszellen” value is given as “zeigen ebenfalls eine Wirkung”.
As for `C[Si](C)(OC(=O)[C@H](Cc1ccccc1)NC(=O)[C@H](Cc1ccccc1)NC(=O)[C@H](Cc1ccccc1)NC(=O)[C@H](Cc1ccccc1)NC(=O)[C@@H](N)Cc1ccccc1)OC(=O)[C@H](Cc1ccccc1)NC(=O)[C@H](Cc1ccccc1)NC(=O)[C@H](Cc1ccccc1)NC(=O)[C@H](Cc1ccccc1)NC(=O)[C@@H](N)Cc1ccccc1` [Dimethyl bis(pentaphenylalanyl)silylester], the “Wirkung auf Basalzellkarzinome” value in [2] was “zeigen eine Wirkung”.
For the molecule `CCCCCCCCCCC(=O)O[Si](OC(=O)CCCCCCCCCC)(C(C)C)C(C)C` [Di(undecanoyloxy)diisopropysilan], in [3], the “antimetastasierende Wirkung bei Osteosarkomen” value is “zeigen eine antimetastasierende Wirkung”.
For the molecule `CC[Si](CC)(OC(=O)[C@@H](NC(=O)[C@@H](NC(=O)[C@@H](N)C(C)C)C(C)C)C(C)C)OC(=O)[C@@H](NC(=O)[C@@H](NC(=O)[C@@H](N)C(C)C)C(C)C)C(C)C` [Diethyl bis(trivalyl)silylester], the “Wirkung auf Seminome” value in [4] is listed as “zeigen eine Wirkung”.
Consider `CCCCC/C=C\C/C=C\CCCCCCCC(=O)O[Si](OC(=O)CCCCCCC/C=C\C/C=C\CCCCC)(C(C)C)C(C)C` [Di(linoylooxy)diisopropylsilan], for which the “Wirkung gegen HIV-Vren” value in series [5] is “zeigen eine Wirkung”. In series [6], the “Wirkung auf Lymphome” value is “zeigen eine Wirkung”.
On to `CCC[Si](CCC)(OC(=O)[C@H](Cc1ccccc1)NC(=O)[C@H](Cc1ccccc1)NC(=O)[C@H](Cc1ccccc1)NC(=O)[C@H](Cc1ccccc1)NC(=O)[C@H](Cc1ccccc1)NC(=O)[C@H](Cc1ccccc1)NC(=O)[C@@H](N)Cc1ccccc1)OC(=O)[C@H](Cc1ccccc1)NC(=O)[C@H](Cc1ccccc1)NC(=O)[C@H](Cc1ccccc1)NC(=O)[C@H](Cc1ccccc1)NC(=O)[C@H](Cc1ccccc1)NC(=O)[C@H](Cc1ccccc1)NC(=O)[C@@H](N)Cc1ccccc1` [Dipropyl bis(heptaphenylalanyl)silylester] (I: H-FFFFFFF / II: H-FFFFFFF; linker I:C-II:C via OSi(nPr)2O), for which, in [7], the “Wirkung gegen Plasmozyten” value was “zeigen eine Wirkung”. Besides, in series [8], the “Wirkung gegen Hepatitis A-Viren” value is on record as “zeigen eine Wirkung”.
Take `CCCCCCCCCC(=O)O[Si](OC(=O)CCCCCCCCC)(C(C)C)C(C)C` [Di(decanoyloxy)diisopropylsilan]: the “antimetastasierende Wirkung bei Osteosarkomen” value in series [3] is listed as “zeigen eine antimetastasierende Wirkung”.
For `CCCCCCCCC(=O)O[Si](OC(=O)CCCCCCCC)(C(C)C)C(C)C` [Di(nonanoyloxy)diisopropylsilan], the “antimetastasierende Wirkung bei Osteosarkomen” value in [3] was “zeigen eine antimetastasierende Wirkung”.
Regarding `C[Si](C)(OC(=O)CNC(=O)CNC(=O)CNC(=O)CNC(=O)CNC(=O)CNC(=O)CNC(=O)CN)OC(=O)CNC(=O)CNC(=O)CNC(=O)CNC(=O)CNC(=O)CNC(=O)CNC(=O)CN` [Dimethyl bis(octaglycyl)silylester] (I: H-GGGGGGGG / II: H-GGGGGGGG; linker I:C-II:C via X1), the “Wirkung gegen Medulloblastome” value in series [9] is listed as “zeigen eine Wirkung”. The “Wirkung gegen Entero-Viren” value in series [10] was “zeigen eine Wirkung”.
On to `CCCCCCCCCCCC[Si](C)(C)O[C@@H]1O[C@H](COC(C)=O)[C@@H](OC(C)=O)[C@H](OC(C)=O)[C@H]1OC(C)=O` [Silan 12, 1-O-Dimethyl(dodecyl)silyl-2,3,4,6-tetra-0-acetyl-ß-D-glucopyrasonid], for which the “Wirkung auf Krebszellen” value in [1] is recorded as “zeigen ebenfalls eine Wirkung”.
Consider `CCC[Si](CCC)(OC(=O)[C@H](C)NC(=O)[C@H](C)NC(=O)[C@H](C)NC(=O)[C@H](C)N)OC(=O)[C@H](C)NC(=O)[C@H](C)NC(=O)[C@H](C)NC(=O)[C@H](C)N` [Dipropyl bis(tetraalanyl)silylester] (I: H-AAAA / II: H-AAAA; linker I:C-II:C via OSi(nPr)2O), for which the “Wirkung gegen Plattenepithelkarzinome” value in series [11] is listed as “zeigen eine Wirkung”.
`C[Si](C)(OC(=O)[C@H](Cc1ccccc1)NC(=O)[C@H](Cc1ccccc1)NC(=O)[C@@H](N)Cc1ccccc1)OC(=O)[C@H](Cc1ccccc1)NC(=O)[C@H](Cc1ccccc1)NC(=O)[C@@H](N)Cc1ccccc1` [Dimethyl bis(triphenylalanyl)silylester]: the “Wirkung auf Basalzellkarzinome” value in [2] is listed as “zeigen eine Wirkung”.
As to `CCCCCCCC/C=C\CCCCCCCC(=O)O[Si](OC(=O)CCCCCCC/C=C\CCCCCCCC)(C(C)C)C(C)C`, the “Wirkung gegen Entero-Viren” value in [12] is recorded as “zeigen eine Wirkung”. The “Wirkung gegen Medulloblastome” value in series [13] is listed as “zeigen eine Wirkung”. For the same molecule, the “Wirkung gegen HIV-Vren” value in series [5] was “zeigen eine Wirkung”. For the same molecule, the “Wirkung auf Lymphome” value in [6] was “zeigen eine Wirkung”.
For `CC/C=C\C/C=C\C/C=C\CCCCCCCC(=O)O[Si](OC(=O)CCCCCCC/C=C\C/C=C\C/C=C\CC)(C(C)C)C(C)C` [Di(linolenoylooxy) diisopropylsilan], the “Wirkung gegen HIV-Vren” value in [5] was “zeigen eine Wirkung”. The “Wirkung auf Lymphome” value in series [6] is reported as “zeigen eine Wirkung”.
On to `C[Si](C)(OC(=O)CNC(=O)CNC(=O)CNC(=O)CN)OC(=O)CNC(=O)CNC(=O)CNC(=O)CN` [Dimethyl bis(tetraglycyl)silylester], for which the “Wirkung gegen Medulloblastome” value in series [9] is reported as “zeigen eine Wirkung”. In series [10], the “Wirkung gegen Entero-Viren” value is “zeigen eine Wirkung”.
Regarding `C[Si](C)(OC(=O)[C@H](Cc1ccccc1)NC(=O)[C@H](Cc1ccccc1)NC(=O)[C@H](Cc1ccccc1)NC(=O)[C@@H](N)Cc1ccccc1)OC(=O)[C@H](Cc1ccccc1)NC(=O)[C@H](Cc1ccccc1)NC(=O)[C@H](Cc1ccccc1)NC(=O)[C@@H](N)Cc1ccccc1` [Dimethyl bis(tetraphenylalanyl)slylester], the “Wirkung auf Basalzellkarzinome” value in series [2] is listed as “zeigen eine Wirkung”.
Take `CCCCCCCCCCCC(=O)O[Si](C)(C)OC(=O)CCCCCCCCCCC` [Di(dodecanoyloxy)dimethylsilan]: the “zentrale, vegetative und toxische Effekte (Verhaltensänderungen)” value in series [14] (1•10^-3 mol/kg) was “keine Verhaltensänderungen”; in [14] (5•10^-3 mol/kg) it was “Ataxie, Ploerektion, Griffstärkesenkung”; in series [14] (5•10^-4 mol/kg) it was “keine Verhaltensänderungen”. Besides, the “Wirkung auf Osteosarkome” value in [15] is on record as “zeigen eine Wirkung”. Further, the “Vitalitätsbeeinflussungen im Neutralrot-Test” value in series [16] is “geringere Vitalitätsbeeinflussungen als im Zytotoxizitätstest”. Moreover, in [17], the “Bedenkliche Toxizität” value is reported as “-”. In addition, in [17] (suspensions, 48 Stunden bei 37°C), the IC50 worked out at 129 µM.
